From patent EP4793271A1, “NEUROPROTECTIVE AGENT” (National Center of Neurology and Psychiatry, priority 2023, dated 2025) come the findings set out here.

In experiment [1] the test system is primary cultured cells of mouse fetus-derived dorsal root ganglia (DRGs). Put plainly: Suppression of axonal degeneration after axotomy in DRG explant culture. In kind it is cell-based. The settings on record: Mus musculus; minimum concentration at which axonal degeneration was suppressed (DI 0.3 or less); 24 hours after axotomy; read-out: Evaluation on protection against degeneration. Here is the method: The compound of the present invention was studied for its protective effect against axonal injury using primary cultured cells of mouse fetus-derived dorsal root ganglia (DRGs).
DRGs were collected from a fetus derived from an ICR mouse (13.5 days of pregnancy). DRGs were cultured using a plate coated by incubation with 0.1 mg/mL poly-L-lysine at 4°C for 24 hours or longer, washing with PBS, and then incubation with 2.5 µg/mL Cultrex Mouse Laminin I at 37°C for 4 to 6 hours.
One of DRGs collected was plated to each well of the coated 24-well plate. The DRG was cultured in a nicotinamide-free medium for neuron (supplemented with 10% FBS, 1 mM glutamine, 50 ng/mL NGF2.5S, and penicillin-streptomycin) for 24 hours at maximum from the start of culture and then cultured in a nicotinamide-free medium for neuron (supplemented with 2% MACS NeuroBrew-21, 50 ng/mL NGF2.5S, 1% Glutamax, 20 µM uridine, 20 µM 5-fluoro-2'-deoxyuridine, and penicillin-streptomycin) for 7 to 8 days.
The nicotinamide-free medium for neuron was prepared so as to have the same constituents as those of the composition published in a previously reported paper (Brewer et al., J. Neuroscience Research 35: 567-576) except for nicotinamide with reference to this composition.
The test compound is dissolved in DMSO and added to cells such that the final concentration of DMSO is 0.1% (1000-fold dilution). 10 mM, 1 mM, 100 µM, 10 µM, 1 µM, and 100 nM samples of the test compound are prepared and added at a 1000-fold dilution to cells.
Axotomy was carried out by scooping out a cell body portion of the cultured DRG with a chip for a micropipette. The test compound was added at the following concentrations (final concentration: 10 µM, 1 µM, 100 nM, 10 nM, 1 nM, and 100 pM) within 30 minutes after axotomy. The compound was evaluated for its protective effect against axonal degeneration by imaging (Leica DMIL microscope, 20× objective lens) the state of neurites 24 hours after axotomy and evaluating the degree of degeneration. The degree of degeneration was quantified using a program uniquely developed using the R language. A degeneration index (DI) was used as an indicator for the degree of degeneration, and the ratio of the area of a fragmented axon to the total area of axons was calculated as defined in the equation of Expression 2. Suppressed axonal degeneration was evaluated when the value of DI was 0.3 or less. The minimum concentration at which axonal degeneration was suppressed was determined for each compound. Degeneratioin index (DI) = (Degenerated axons)/(All axons) [formula]
The axonal protective activity was evaluated as A ≤ 0.01 µM, 0.01 µM < B ≤ 0.1 µM, and 0.1 µM < C ≤ 1 µM depending on the minimum concentration at which axonal degeneration was suppressed.

The target in experiment [2] is T1, hSARM1 (Homo sapiens, UniProt Q6SZW1).
T1 sequence (Q6SZW1 28-724): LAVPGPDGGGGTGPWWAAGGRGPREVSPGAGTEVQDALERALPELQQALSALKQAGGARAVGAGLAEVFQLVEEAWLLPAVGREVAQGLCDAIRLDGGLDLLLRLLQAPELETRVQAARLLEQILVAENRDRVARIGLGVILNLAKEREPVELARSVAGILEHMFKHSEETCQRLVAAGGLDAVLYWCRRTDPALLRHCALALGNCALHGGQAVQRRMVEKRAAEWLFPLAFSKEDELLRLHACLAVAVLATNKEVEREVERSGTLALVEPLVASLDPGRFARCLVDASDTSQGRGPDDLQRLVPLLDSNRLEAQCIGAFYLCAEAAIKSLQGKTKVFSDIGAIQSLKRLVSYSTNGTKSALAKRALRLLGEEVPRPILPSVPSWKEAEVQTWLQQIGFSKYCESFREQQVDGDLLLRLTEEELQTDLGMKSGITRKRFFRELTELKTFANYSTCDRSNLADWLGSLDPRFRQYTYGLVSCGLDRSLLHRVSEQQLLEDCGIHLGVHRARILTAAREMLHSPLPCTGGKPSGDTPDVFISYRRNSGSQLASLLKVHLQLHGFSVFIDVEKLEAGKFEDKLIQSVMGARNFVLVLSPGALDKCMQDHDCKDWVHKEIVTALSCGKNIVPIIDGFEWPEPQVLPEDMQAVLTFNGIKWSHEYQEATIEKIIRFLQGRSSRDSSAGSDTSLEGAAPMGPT
The experiment is described as follows: Human SARM1 activity measurement in HEK293 cells transiently transfected with ΔN-hSARM1 (PC6 fluorescent probe). In kind it is cell-based. The settings on record: inhibition rate; compound 30 µM; PC6 50 µM; HEK293 cells expressing ΔN-hSARM1; approximately 48 hours from transfection; read-out: Evaluation on hSARM1 inhibitory. Also noted: expressed in transfected cells; host or cells: HEK293, pcDNA3 expression vector. The method, then: HEK293 cells cultured in a prepared medium of nicotinamide-free DMEM (Dulbecco's modified Eagle medium) supplemented with 10% FBS (BioSera), a 1% penicillin-streptomycin solution (FUJIFILM Wako Pure Chemical Corp.), 5 μM nicotinamide were inoculated at approximately 50,000 cells/well to a 96-well microplate, and the cells were cultured at 37°C under 5% CO2, transiently transfected on the next day with a pcDNA3 expression vector containing a DNA sequence (SEQ ID NO: 1) deficient in a mitochondrial targeting sequence encoded by an N-terminal 78-base sequence in cDNA encoding human sterile α- and armadillo-motif-containing protein (hSARM1) using PEI MAX(R) reagent (PolySciences Inc.), and forced to express ΔN-hSARM1 (SEQ ID NO: 2). Approximately 8 hours later, PC6, which reacts as a substrate of SARM1-specific base exchange reaction and functions as a fluorescent probe, was added thereto at a final concentration of 50 μM, and intracellular hSARM1 activity was measured (Li et al, eLife 2021 10: e67381). A compound for inhibitory activity evaluation was added at a final concentration of 30 μM at the same time with PC6, while dimethyl sulfoxide (Nacalai Tesque Inc.) was added to samples of a control group at the same time with PC6. The cells were incubated at 37°C under 5% CO2 for approximately 48 hours from transfection, followed by fluorescent signal measurement using SpectraMax M2 (Molecular Devices) (excitation: 405 nm, fluorescence: 525 nm, fluorescence cutoff: 515 nm). Results of this screening are reported as an inhibition rate (%) relative to a negative control defined as follows by using fluorescence intensity measured from a control group without transfection with ΔN-hSARM1 as a background whereas using fluorescence intensity measured from a control group transfected with ΔN-hSARM1 as the negative control. Inhibitory rate (%) = 100-(([…]-Background))/((Signalofthenegativecontrol-Background)) × 100 [formula] The nicotinamide-free medium was prepared so as to have the same composition as that of DMEM having known composition which is generally used in the art except for nicotinamide. […]

The target in experiment [3] is T2, nicotinamide phosphoribosyl transferase (NAMPT) (Homo sapiens, UniProt P43490).
T2 construct: purchased Medical & Biological Laboratories Co., Ltd. (MBL)
T2 sequence (P43490 whole entry, species assumed): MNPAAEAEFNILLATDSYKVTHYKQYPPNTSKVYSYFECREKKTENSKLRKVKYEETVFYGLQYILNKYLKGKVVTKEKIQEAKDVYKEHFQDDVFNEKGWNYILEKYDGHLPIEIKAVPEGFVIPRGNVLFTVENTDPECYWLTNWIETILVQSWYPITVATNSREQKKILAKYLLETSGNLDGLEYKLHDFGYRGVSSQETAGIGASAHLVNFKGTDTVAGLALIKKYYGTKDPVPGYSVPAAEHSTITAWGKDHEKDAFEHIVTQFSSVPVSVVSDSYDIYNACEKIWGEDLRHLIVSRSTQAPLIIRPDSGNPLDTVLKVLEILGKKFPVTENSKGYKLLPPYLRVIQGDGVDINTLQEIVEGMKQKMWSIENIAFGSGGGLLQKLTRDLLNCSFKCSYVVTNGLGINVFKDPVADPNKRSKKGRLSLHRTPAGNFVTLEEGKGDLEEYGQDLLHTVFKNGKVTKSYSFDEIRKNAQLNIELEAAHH
Put plainly: NAMPT activity measurement (NMN fluorescence detection). The settings on record: NAMPT recombinant protein, 10 µM Nam; for pIC50: read-out: Evaluation on NAMPT inhibitory. In kind it is biochemical. Here is the method: The compound of the present invention was evaluated for the ability to influence the activity of nicotinamide phosphoribosyl transferase (NAMPT) which is an enzyme that metabolizes nicotinamide (Nam), not the target SARM1.
The enzymatic reaction of NAMPT was carried out by adding NAMPT recombinant protein (manufactured by Medical & Biological Laboratories Co., Ltd. (MBL)) to a reaction solution containing the substrate Nam, phosphoribosylpyrophosphate (PRPP), ATP, and the like (composition: […] (pH = 7.4), 2 µM ATP, 0.5 µM PRPP, 0.02% BSA, 2 µM DTT, 1.2 µM MgCl2, and 10 µM Nam). The amount of the reaction product NMN was detected by detecting the fluorescent signal of a fluorescent substance obtained through the reaction of 2-acetylbenzofuran with NMN using SpectraMax M2 (Molecular Devices) (excitation: 421 nm, fluorescence: 480 nm) (Moriya et al, Chemical Communications 2013, 49 11500). The test compound was added at final concentrations of 10 µM, 3 µM, 1 µM, 300 nM, 100 nM, 30 nM, 10 nM, and 3 nM to the NMN synthesis reaction system described above. The NMN-derived fluorescent signal was normalized against a control group and plotted as the function of the test compound concentrations, and the compound was evaluated for its NAMPT inhibitory effect by calculating IC50.
The IC50 value was evaluated as ∘ for ≥1 µM and as Δ for ≥0.1 µM.

pIC50: −log10 of the molar value.

Turning to `CC#CC(=O)Nc1ccc(CNC(=O)c2cccnc2)cn1` [Compound 183], the minimal effective concentration in experiment [1] lay in the range of 0.01 to 0.1 µM. In addition, in experiment [2], the inhibition at 30 µM was over 50%. Moreover, the pIC50 in experiment [3] is at most 7.00.
`C#CCOc1ccc(C(=O)Nc2ccc(CNC(=O)c3cccnc3)cn2)cc1` [compound 91]: in experiment [1], the minimal effective concentration is at most 0.01 µM. Moreover, the inhibition at 30 µM in experiment [2] was over 50%. In addition, the “Evaluation on NAMPT inhibitory” value in experiment [3] is on record as “○”.
On the same counts, the results for `COCOc1cccc(OCCOCCNC(=O)c2cccnc2)c1` [compound 30] are 0.01 to 0.1 µM, over 50% and “○”.
As for `O=C(/C=C/c1cccnc1)NCc1cccc(NC(=O)/C=C/c2cccnc2)c1` [compound 61], the minimal effective concentration in experiment [1] is at most 0.01 µM. Further, in experiment [2], the inhibition at 30 µM was over 75%. Moreover, in experiment [3], the pIC50 is at most 7.00.
On the same counts, the results for `O=C(COc1ccc(OCc2ccccc2)cc1)Nc1ccc(CNC(=O)c2cccnc2)cn1` [Compound 178] are 0.01 to 0.1 µM, over 75% and at most 7.00.
As to `COC(=O)c1ccc(OCCOCCNC(=O)c2cccnc2)cc1` [compound 32], the minimal effective concentration in experiment [1] is at most 0.01 µM. Also, the inhibition at 30 µM in experiment [2] was over 50%. The “Evaluation on NAMPT inhibitory” value in experiment [3] was “○”.
For `O=C(NCc1ccc(NC(=O)c2cccnc2)nc1)c1cccnc1` [Compound 120], the minimal effective concentration in experiment [1] is at most 0.01 µM. Further, the inhibition at 30 µM in experiment [2] was over 25%. Moreover, in experiment [3], the “Evaluation on NAMPT inhibitory” value is on record as “○”.
The like results for `CCCCC(=O)N(C(=O)CCCC)c1ccc(CNC(=O)c2cccnc2)cn1` [Compound 171] were, in that order, at most 0.01 µM, over 50% and “○”.
The like results for `CCC(C)CC(=O)Nc1ccc(CNC(=O)c2cccnc2)cn1` (centres unmarked) [Compound 165] were, in that order, at most 0.01 µM, over 75% and “○”.
On the same counts, the results for `O=C(CCc1ccc(C(F)(F)F)cc1)Nc1ccc(CNC(=O)c2cccnc2)cn1` [Compound 169] are at most 0.01 µM, over 75% and “○”.
On to `Cc1ccc(C(=O)Nc2ccc(CNC(=O)c3cccnc3)cn2)cc1C` [Compound 134], for which the minimal effective concentration in experiment [1] was at most 0.01 µM. In addition, the inhibition at 30 µM in experiment [2] is over 75%. The “Evaluation on NAMPT inhibitory” value in experiment [3] is reported as “○”.
On the same counts, the results for `O=C(NCc1ccc(NC(=O)c2ccncc2)nc1)c1cccnc1` [Compound 124] are at most 0.01 µM, over 75% and “○”.
On the same counts, the results for `CCCCC(=O)Nc1ccc(CNC(=O)c2cccnc2)cn1` [Compound 159] are at most 0.01 µM, over 50% and “○”.
On the same counts, the results for `O=C(NCCCOCCOCCCNC(=O)c1cccnc1)c1ccccc1` [Compound 186] are 0.01 to 0.1 µM, over 25% and “○”.
Turning to `C/C(=C\C(=O)NCCOCCNC(=O)/C=C(\C)c1cccnc1)c1cccnc1` [compound 43], the minimal effective concentration in experiment [1] was at most 0.01 µM. Also, the inhibition at 30 µM in experiment [2] is over 75%. The pIC50 in experiment [3] was at most 7.00.
On the same counts, the results for `O=C(NCc1ccc(NC(=O)c2cc(F)cc(C(F)(F)F)c2)nc1)c1cccnc1` [compound 84] are 0.01 to 0.1 µM, over 75% and at most 7.00.
`O=C(NCCCCC1NC(=O)C(CCCCNC(=O)c2cccnc2)NC1=O)c1cccnc1` (centres unmarked) [compound 104]: in experiment [1], the minimal effective concentration lay within 0.1 to 1 µM. Besides, in experiment [2], the inhibition at 30 µM is over 10%. Moreover, the “Evaluation on NAMPT inhibitory” value in experiment [3] is given as “○”.
`O=C(NCCCOc1ccc(CNC(=O)c2ccccc2)cc1)c1cccnc1` [compound 15]: the minimal effective concentration in experiment [1] was at most 0.01 µM. For the same compound, the inhibition at 30 µM in experiment [2] was over 75%. In addition, in experiment [3], the pIC50 is at most 7.00.
In the case of `O=C(NCc1cccc(CN2Cc3ccccc3C2=O)n1)c1cccnc1` [compound 92], in experiment [2], the inhibition at 30 µM is over 10%. Besides, in experiment [3], the “Evaluation on NAMPT inhibitory” value was “○”.
